From patent US7968572B2, “Nitrogen-containing heterocyclic compound and pharmaceutical application thereof” (Ono Pharmaceuticals Co., Ltd., priority 2005, dated 2011)

Assays:
[1] = tested on: TNF-α production stimulated by lipopolysaccharide (LPS) in THP-1; assay: Inhibitory activity against TNF-α production using human cell lines (LPS-stimulated THP-1); type: cell-based; conditions: 1.5 h, THP-1 cells, LPS stimulation, 90 minutes at 37° C., TNF-α by ELISA
Method: Inhibitory Activity against TNF-α Production using Human Cell Lines
Using THP-1 which is a human monocytic cell line, the inhibitory effect of the compound of the present invention against TNF-α production stimulated by lipopolysaccharide (LPS) was studied.
Each 50 μL of lipopolysaccharide (LPS; 055:B5, Difco) prepared to a concentration of 40 ng/mL using RPMI-1640 medium containing 10% fetal calf serum (hereinafter abbreviated to RPMI-1640) and RPMI-1640 containing the compound of the present invention was added to a 96-well plate for cell culture. 100 μL of the cell suspension of THP-1 (Dainippon Pharmaceutical Co., Ltd, #06-202) prepared to a cell density of 2×10^6 cells/mL using RPMI-1640 was added and cultured for 90 minutes at 37° C. in an incubator (5% CO2, 95% air). After completion of the reaction, the culture medium supernatant was recovered and the amount of produced TNF-α was measured using an ELISA kit (Invitrogen, #850090192).
The inhibitory activity against TNF-α production, which is the effect of the compound of the present invention, was calculated as an inhibition rate (%) by the following equation: Inhibition rate (%)={(AC−AX)/(AC−AB)}×100
wherein AB is a measured value without LPS induction;
AC is a measured value with LPS induction in the absence of a test compound; and
AX is a measured value with LPS induction in the presence of a test compound.
Inhibition rate of compounds with each concentration was calculated, and a value indicating 50% inhibition (IC50) was determined from the inhibition curve.

[2] = tested on: TNF-α production induced by lipopolysaccharide (LPS) in rats; assay: Rat cytokine-production model; type: in vivo; conditions: male SD rat, oral 0.3 mg/kg, LPS 10 μg/kg intravenously after 8 hours, plasma TNF-α ninety minutes after LPS; read-out: Inhibition rate (%) (Dose of compound: 0.3 mg/kg)
Method: Rat Cytokine-Production Model
The in vivo effect of the compound of the present invention was studied on TNF-α production induced by lipopolysaccharide (LPS) in rats.
A vehicle containing the compound of the present invention was orally administered to male SD rat (Charles River Japan, Inc.), and after 8 hours, lipopolysaccharide (LPS, 055:B5, Difco) was intravenously administered at the dose of 10 μg/kg (5 animals/group). Only a vehicle was orally administered to a control group (5 animals). Ninety minutes after the LPS treatment, heparinized blood collection was performed via the abdominal vena cava under anesthesia with ether, and blood plasma was obtained by centrifugation (12,000 rpm, 3 minutes, 4° C.). The obtained blood plasma sample was stored at −80° C. until it was used. TNF-α in the blood plasma was measured using an ELISA kit from R&D System (#RTA00).
The inhibitory activity of the compound of the present invention against TNF-α production was calculated as an inhibition rate (%) according to the following equation: Inhibition rate (%)={(AC−AX)/AC}×100
wherein AC is a measured value in case where no test compound was administered under LPS induction, and
AX is a measured value in case where a test compound was administered under LPS induction.

[3] = tested on: Chinese hamster lung cells (CHL/IU); assay: Phospholipidosis detection system using a fluorescence labeling phospholipid analog (NBD-PE); type: cell-based; conditions: for Pospholipid accumulation increasing ratio (% of 30 uM amiodarone) (Dose of compound: 100 uM): about 24 hours with NBD-PE; for Judgment: phospholipidosis inducing activity, NBD-PE
Method: Study by a Phospholipidosis Detection System using a Fluorescence Labeling Phospholipid Analog Cell suspension (7×10^4 cells/ml) of Chinese hamster lung cells (CHL/IU) prepared using MEM (minimum essential medium) was added to a 96 well plate (96 well clear bottom plate) by 100 μL/necessary number of wells (2 wells for 1 dosage) and cultured for about 24 hours. After the culturing and subsequent removal of the supernatants on the 96 well plate, the compounds having respective concentrations prepared by dissolving or suspending in MEM medium containing 25 μmol/L of nitrobenzoxazole dipalmitoyl phosphatidyl ethanolamine (NBD-PE) (hereinafter abbreviated to NBD-PE medium) were added thereto by 100 μL/ well and treated for about 24 hours. Treating concentration of each compound was set to be 6.25, 12.5, 25, 50 or 100 μmol/L. […] In this connection, 5 wells of an untreated control (MEM medium alone) or an NBD-PE control (prepared by adding 1/100 volume of DMSO to the NBD-PE medium) were arranged for each compound and cultured in the same manner. After completion of the culturing and subsequent two times of washing with 100 μL/well of phosphate buffered saline (hereinafter abbreviated to PBS) (−), 100 μL of the MEM medium was added to all of the treated wells including two empty wells for the WST-1 background control and cultured for about 0.5 hour. Fluorescence intensity of each well was measured using a microplate reader (manufactured by Molecular Devices, SPECTRA max M2; excitation wavelength 485 nm/fluorescence wavelength 535 nm). Using average value of 2 wells for each dosage, the phospholipid increasing ratio (%) based on NBD-PE control was calculated using the following formula. Phospholipid accumulation increasing ratio (%)=100×(fluorescence intensity of substance to be tested−fluorescence intensity of untreated control)/(fluorescence intensity of NBD-PE control−fluorescence intensity of untreated control) (iii) Cytotoxicity Test The Pre value was calculated by measuring the 96 well plate which was measured in the measurement of phospholipid accumulation, using the microplate reader (manufactured by Molecular Devices, SPECTRA max M2) at a dominant wavelength of 450 nm and a correction wavelength of 690 nm. Premix WST-1 was added to the pre-measured 96 well plate by 5 μL/well. After 2 to 4 hours of culture, the Aft value was calculated by measuring in the same manner as in the Pre measurement. The background control value was subtracted from each of the measured values. Using the value obtained by subtracting the Pre value from the Aft value, the cell growth ratio (%) was calculated using the following formula.

| SMILES | IC50 [1] | inhibition at 0.3 mg/kg [2] | Pospholipid accumulation increasing ratio (% of 30 uM amiodarone) (Dose of compound: 100 uM) [3] | Judgment [3] |
| --- | --- | --- | --- | --- |
| CC(C)(O)[C@H](O)c1nc(-c2ccc(=O)n(-c3c(F)cccc3F)c2)c(-c2ccc(F)cc2F)o1 [Example 227, 1-(2,6-difluorophenyl)-5-{5-(2,4-difluorophenyl)-2-[(1S)-1,2-dihydroxy-2-methylpropyl]-1,3-oxazol-4-yl}-2(1H)-pyridinone] | 1.7 nM | 65% | 12 % of 30 uM amiodarone | Negative |
| O=c1ccc(-c2oc(C(O)(CO)CO)nc2-c2ccc(F)cc2F)cn1-c1c(F)cccc1F [Example 223, 1-(2,6-difluorophenyl)-5-{4-(2,4-difluorophenyl)-2-[1,2-dihydroxy-1-(hydroxymethyl)ethyl]-1,3-oxazol-5-yl}-2(1H)-pyridinone] | 2.1 nM | 72% | 12 % of 30 uM amiodarone | Negative |
| C[C@@](O)(CO)c1nc(-c2ccc(=O)n(-c3c(F)cccc3F)c2)c(-c2ccc(F)cc2F)o1 [Example 167 (1), 1-(2,6-difluorophenyl)-5-{5-(2,4-difluorophenyl)-2-[(1R)-1,2-dihydroxy-1-methylethyl]-1,3-oxazol-4-yl}-2(1H)-pyridinone] | 0.8 nM | 73% | 3 % of 30 uM amiodarone | Negative |
| CC(C)(O)c1nc(-c2ccc(=O)n(-c3c(F)cccc3F)c2)c(-c2ccc(F)cc2F)o1 [Example 7 (21), 1-(2,6-difluorophenyl)-5-[5-(2,4-difluorophenyl)-2-(1-hydroxy-1-methylethyl)-1,3-oxazol-4-yl]-2(1H)-pyridinone] | 1.7 nM | 85% | 8 % of 30 uM amiodarone | Negative |
| C[C@](O)(CO)c1nc(-c2ccc(=O)n(-c3c(F)cccc3F)c2)c(-c2ccc(F)cc2F)o1 [Example 167 (2), 1-(2,6-difluorophenyl)-5-{5-(2,4-difluorophenyl)-2-[(1S)-1,2-dihydroxy-1-methylethyl]-1,3-oxazol-4-yl}-2(1H)-pyridinone] | 1.1 nM | 64% | 18 % of 30 uM amiodarone | Negative |
| O=c1ccc(-c2nc(C(O)(CO)CO)oc2-c2ccc(F)cc2F)cn1-c1c(F)cccc1F [Example 7 (39), 1-(2,6-difluorophenyl)-5-{5-(2,4-difluorophenyl)-2-[1,2-dihydroxy-1-(hydroxymethyl)ethyl]-1,3-oxazol-4-yl}-2(1H)-pyridinone] | 1.8 nM | 64% | 11 % of 30 uM amiodarone | Negative |
| CC(C)(O)[C@@H](O)c1nc(-c2ccc(=O)n(-c3c(F)cccc3F)c2)c(-c2ccc(F)cc2F)o1 [Example 227 (1), 1-(2,6-difluorophenyl)-5-{5-(2,4-difluorophenyl)-2-[(1R)-1,2-dihydroxy-2-methylpropyl]-1,3-oxazol-4-yl}-2(1H)-pyridinone] | 0.7 nM | 88% | 13 % of 30 uM amiodarone | Negative |

Further lines, with some results ahead:

| IC50 [1] | SMILES | inhibition at 0.3 mg/kg [2] | Pospholipid accumulation increasing ratio (% of 30 uM amiodarone) (Dose of compound: 100 uM) [3] | Judgment [3] |
| --- | --- | --- | --- | --- |
| 0.6 nM | C[C@@](O)(CO)c1nc(-c2ccc(F)cc2F)c(-c2ccc(=O)n(-c3c(F)cccc3F)c2)o1 [Example 211, 1-(2,6-difluorophenyl)-5-{4-(2,4-difluorophenyl)-2-[(1R)-1,2-dihydroxy-1-methylethyl]-1,3-oxazol-5-yl}-2(1H)-pyridinone] | 85% | 8 % of 30 uM amiodarone | Negative |
| 0.9 nM | CC(C)(O)[C@H](O)c1nc(-c2ccc(F)cc2F)c(-c2ccc(=O)n(-c3c(F)cccc3F)c2)o1 [Example 206, 1-(2,6-difluorophenyl)-5-{4-(2,4-difluorophenyl)-2-[(1S)-1,2-dihydroxy-2-methylpropyl]-1,3-oxazol-5-yl}-2(1H)-pyridinone] | 79% | 10 % of 30 uM amiodarone | Negative |
| 0.6 nM | CC(C)(O)[C@@H](O)c1nc(-c2ccc(F)cc2F)c(-c2ccc(=O)n(-c3c(F)cccc3F)c2)o1 [Example 207, 1-(2,6-difluorophenyl)-5-{4-(2,4-difluorophenyl)-2-[(1R)-1,2-dihydroxy-2-methylpropyl]-1,3-oxazol-5-yl}-2(1H)-pyridinone] | 94% | 11 % of 30 uM amiodarone | Negative |
| 1.4 nM | CC(C)(O)Cc1nc(-c2ccc(F)cc2F)c(-c2ccc(=O)n(-c3c(F)cccc3F)c2)o1 [Example 220, 1-(2,6-difluorophenyl)-5-[4-(2,4-difluorophenyl)-2-(2-hydroxy-2-methylpropyl)-1,3-oxazol-5-yl]-2(1H)-pyridinone] | 88% | 11 % of 30 uM amiodarone | Negative |
